Where a name gives a salt, the structure may show the parent alone. Read-outs that look alike come from different tables or passages of the source.
Test system: hPSC-NSCs
Test: RT-PCR expression of dopamine neuron genes in hPSC-NSCs treated with small molecule hits
Type: cell-based, human
Settings: for fold induction at 2.5 µM: Homo sapiens, Neuron, 336 h
Description: The method specifically involved treating both hESC-H9-NSCs (Invitrogen) and hPSC-NSCs with Purmorphamine (2 μM) and FGF8 (100 ng/mL) in NB medium [NeuroBasal medium, 1× GlutaMAX, 1× N2/B27 Supplement (Invitrogen)] for 7 days. After 7 days of Purmorphamine and FGF8 treatment, the NSCs were dissociated with Accutase (Sigma) and plated 20,000 cells/mL into Matrigel coated 96 well plates and treated with small molecule library (Torcris 1120 Biologically Active Compounds) at 2.5 μM final concentration for two weeks (FIG. 6A). Two weeks after treatment with small molecules, all wells were visually observed and scored based on neurite density and dopamine release. For measuring neurite density, cells were fixed with 4% paraformaldehyde and phase contrast images were acquired using Cellavista Cell Imaging System (Roche Applied Science) from randomly selected fields. Neurite density was measured using the Cellavista density software image processing program. Each experimental condition was done in duplicate wells, and at least three independent experiments were conducted to acquire the final results.
Conditioned medium from the top neurite inducers (Table 1) (wells containing the highest density of neurites compare to control 0.1% DMSO treated) were collected and analyzed using a dopamine ELISA assay (Cosmo Bio). Conditioned medium was collected from samples containing 50,000 cells per well and centrifuged at 3000 RPM to remove cell debris. Supernatant was then collected and analyzed for quantitative determination of dopamine using a commercial dopamine ELISA assay kit (CusaCosmo Bio). Data analysis was performed using the microtiter plate reader (BIO-TEK Synergy 2). The results presented are from three independent experiments (n=3) and represented as mean±standard error of mean (s.e.m.) and statistical analysis was performed using the two-tailed Student's t-test with a confidence level of 95% (α=0.05) with statistical significance of P<0.05. Additionally, total RNA from each well were collected and analyze by RT-PCR for expression of TuJ1, MAP2, TH, GRK2, EN1, DAT, AADC, PAX2, NURR1, PITX3 and LMX1B from hPSC-NSCs (Table 2). […] Analysis of the ELISA data indicated the top small molecule neurite inducers produced higher levels of dopamine than control non-treated cells (1.5 ng/mL). […] The percentages of TH positive cells produced by chemical treatment with Kenpaullone (33%), Guggulsterone (35%), Kynurenic Acid (19%), Immedthridine Dihydrobromide (21%), and Dimaprit Dihydrochloride (18%) were higher than 15% of TH positive cells obtained from hPSC-NSCs differentiated for ≥1 month using a standard dopaminergic differentiation medium (BDNF 20 ng/mL, GDNF 20 ng/mL, cAMP 200 μM, Abscorbic Acid 200 μM, TGFβ3 2 ng/mL and DAPT).
Total RNA from at least triplicate samples with around 1 million cells each was isolated using either QIAsymphony automatic purification system or RNeasy Plus Mini kit, according to manufacturer's instructions (Qiagen). Total RNA was used for reverse transcription with the iScript cDNA synthesis kit (Biorad) and Px2 Thermal Cycler (Thermo Scientific). To analyze gene expression, PCR reactions were performed in duplicate using 1/25-th of the cDNA per reaction and the QuantiTect Primer Assay and Quantitest SYBR Green master mix (Qiagen). qPCR was performed using the Rotor-Gene Q (Qiagen) 5 min at 95° C., 5 s at 92° C., and 20 s at 60° C. for 37 cycles followed by melt to check the specificity of the amplicons from 50 to 99° C. raising by 1° C. each step. Relative quantification was performed against a standard curve and quantified values were normalized against the input determined by PPIG. The primers used for the analysis are listed in Supplementary Table S1. […]

[1] = hPSC-NSCs primed 7 days with Purmorphamine and FGF8, small molecule 2.5 μM for two weeks
[2] = hPSC-NSCs primed 7 days with Purmorphamine and FGF8, small molecule 2.5 μM for two weeks, read-out: DDC (AADC) expression by RT-PCR
[3] = hPSC-NSCs primed 7 days with Purmorphamine and FGF8, small molecule 2.5 μM for two weeks, read-out: EN1 expression by RT-PCR
[4] = hPSC-NSCs primed 7 days with Purmorphamine and FGF8, small molecule 2.5 μM for two weeks, read-out: KCNJ6 expression by RT-PCR
[5] = hPSC-NSCs primed 7 days with Purmorphamine and FGF8, small molecule 2.5 μM for two weeks, read-out: LMX1B expression by RT-PCR
[6] = hPSC-NSCs primed 7 days with Purmorphamine and FGF8, small molecule 2.5 μM for two weeks, read-out: MAP2 expression by RT-PCR
[7] = hPSC-NSCs primed 7 days with Purmorphamine and FGF8, small molecule 2.5 μM for two weeks, read-out: NR4A2 (NURR1) expression by RT-PCR
[8] = hPSC-NSCs primed 7 days with Purmorphamine and FGF8, small molecule 2.5 μM for two weeks, read-out: PITX3 expression by RT-PCR
[9] = hPSC-NSCs primed 7 days with Purmorphamine and FGF8, small molecule 2.5 μM for two weeks, read-out: Pax2 expression by RT-PCR
[10] = hPSC-NSCs primed 7 days with Purmorphamine and FGF8, small molecule 2.5 μM for two weeks, read-out: TH1 expression by RT-PCR
[11] = hPSC-NSCs primed 7 days with Purmorphamine and FGF8, small molecule 2.5 μM for two weeks, read-out: Tubb3 expression by RT-PCR

| Compound | DDC (AADC) expression by RT-PCR [1] | EN1 expression by RT-PCR [1] | KCNJ6 (GRK2) expression by RT-PCR [1] | LMX1B expression by RT-PCR [1] | MAP2 expression by RT-PCR [1] | NR4A2 (NURR1) expression by RT-PCR [1] | PITX3 expression by RT-PCR [1] | Pax2 expression by RT-PCR [1] | SLC6A3 (DAT) expression by RT-PCR [1] | TH1 expression by RT-PCR [1] | Tubb3 expression by RT-PCR [1] | other results |
| --- | --- | --- | --- | --- | --- | --- | --- | --- | --- | --- | --- | --- |
| Cc1cc(C(=O)O)sc1C(N)C(=O)O (stereo not shown) [3-MATIDA] | 80.55 | 7.3 | 1.21 | 2.99 | 10.7 | 3.06 | 0.46 | 0.65 | 1.42 | 5.1 | 3.74 |  |
| Br.CCCN(CCC)C1CCc2cccc(O)c2C1 (stereo not shown) [8-Hydroxy-DPAT hydrobromide] | 124.29 | 11.69 | 0.9 | 5.42 | 14.43 | 7.66 |  | 1.25 | 19.9 | 7.32 | 7.8 |  |
| N[C@@H]1CCN(O)C1=O [(R)-(+)-HA-966] | 104.03 | 7.26 | 1.02 | 3.94 | 10.66 | 3.91 | 0.23 | 4.7 | 26.39 | 6.75 | 5.61 |  |
| Cc1nnc2ccc(-c3cccc(C(F)(F)F)c3)nn12 [CL 218872] | 8.73 | 5.69 | 0.43 | 2.52 | 8.94 | 1.79 | 0.08 | 0.09 | 0.98 | 13.89 | 4.3 |  |
| Nc1nc(Nc2ccccc2)nc2c1ncn2[C@@H]1O[C@H](CO)[C@@H](O)[C@H]1O [CV 1808] | 16.69 | 5.56 | 0.36 |  | 8.66 | 1.56 | 0.7 |  | 0.94 | 12.51 | 3.86 |  |
| CCCC[C@@H](C=O)NC(=O)[C@H](CC(C)C)NC(=O)OCc1ccccc1 [Calpeptin] |  |  |  |  |  |  |  |  |  |  |  | fold induction at 2.5 µM (read-out: SLC6A3 (DAT) expression by RT-PCR): 6.57; fold induction at 2.5 µM [2]: 295; fold induction at 2.5 µM [3]: 6.93; fold induction at 2.5 µM [4]: 4.43; fold induction at 2.5 µM [5]: 2.9; fold induction at 2.5 µM [6]: 12.9; fold induction at 2.5 µM [7]: 2.45; fold induction at 2.5 µM [8]: 0.37; fold induction at 2.5 µM [9]: 3.54; fold induction at 2.5 µM [10]: 15.2; fold induction at 2.5 µM [11]: 6.1 |
| CC(C)(C)c1cc(C(=O)/C=C/c2ccc(C(=O)O)cc2)cc(C(C)(C)C)c1 [Ch 55] | 22.86 | 11.61 | 0.25 | 1.54 | 5.25 | 77.93 | 0.13 | 0.06 | 0.11 | 1.19 | 3.48 |  |
| O=S(=O)(c1cccc2cnccc12)N1CCCNCC1 [Fasudil hydrochloride] |  |  |  |  |  |  |  |  |  |  |  | fold induction at 2.5 µM [2]: 32.4; fold induction at 2.5 µM [3]: 8.69; fold induction at 2.5 µM [4]: 1.57; fold induction at 2.5 µM [5]: 3.5; fold induction at 2.5 µM [6]: 11.6; fold induction at 2.5 µM [7]: 4.53; fold induction at 2.5 µM [8]: 0.27; fold induction at 2.5 µM [9]: 0.27; fold induction at 2.5 µM (hPSC-NSCs primed 7 days with Purmorphamine and FGF8, small molecule 2.5 μM for two weeks, read-out: SLC6A3 (DAT) expression by RT-PCR): 2.79; fold induction at 2.5 µM [10]: 5.53; fold induction at 2.5 µM [11]: 5.67 |
| O=C(O)Cc1cccnc1C(=O)O [Homoquinolinic acid] | 20.19 | 4.83 | 1.76 | 2.32 | 10.03 | 1.99 | 0.4 | 0.05 | 19.18 | 10.77 | 2.95 |  |
| Cl.O=C(O)COc1ccc(OCCNC[C@H](O)COc2ccccc2)cc1 [ICI 215,001 hydrochloride] | 29.34 | 8.52 | 1.48 | 4.79 | 11.2 | 2.88 |  | 39.43 | 1.77 | 6.04 | 5.54 |  |

— patent US9926529B2, “Derivation of neural stem cells and dopaminergic neurons from human pluripotent stem cells” (International Stem Cell Corporation, priority 2012, dated 2018)
